Laboratory results as given in patent US5789604A, “Isolation, characterization and structures of new antibiotic components produced by fungal culture 07F275” (priority 1993, dated 1998).

Columns and labels:
Cercospora beticola = assay: in vivo evaluation as fungicidal agents, sugar beet cercospora
Description: (§1) in Vivo Evaluation as Fungicidal Agents (Table 2)
(§2) Compounds are dissolved in acetone, diluted to the desired concentration with water and surfactant and sprayed onto the test plants. After drying, the test plants are treated with fungal inoculum. When disease symptom development is optimal, plants are rated for disease control. Inoculated untreated plants, solvent/surfactant treated plants and plants treated with a reference standard are used for comparison.
SBC Sugar beet cercospora
(§3) Compounds are rated for control of each disease according to the rating scale shown below: […]

Pyricularia oryzae = conditions: in vivo
[1] = test system: Psudocercosporella herpotrichoides; assay: in vitro inhibition of mycelial growth, PSDCHE; assay type: cell-based
Description: (§4) in Vitro Evaluation of the Inhibition of the Mycelial Growth by Target (Table 3)
(§5) Severe soilborne diseases such as damping off, seedling blight, crown rot, and root rot, among others are caused by certain plant pathogenic fungi. An in Vitro assay is conducted to determine whether test compounds will inhibit the mycelial growth of said fungi. Pathogens, the method of testing, and the rating system used are reported below.
(§6) General Procedure for the in Vitro Fungicide Screen Assay fungi included the following plant pathogens: FUSOXC Fusarium oxysporum Schlechtend: Fr.f.sp. cucumerinim J. H. Owen
(§7) PSDCHE Psudocercosporella herpotrichoides Deighton
(§8) The test compound (2.5-10 mg) is dissolved in 0.5 ml acetone, diluted with 4.5 ml sterile deionized water, and mixed with 95 ml of an autoclaved and partially cooled, chemically defined agar medium in a 250 ml flask. Test compounds that are insoluble are prepared as a fine suspension ultrasonically or with a glass tissue grinder, before addition to the medium. The chemically defined medium (CDM) used in these experiments is as follows:
(§9) CDM is sterilized by autoclaving or by filtration through a […]
(§10) The mixture of test compound and agar medium as described above is poured into several 100 mm×15 mm sterile plastic plates and allowed to solidify. The surface of each plate is inoculated with a single disc of mycelium and agar cut with an 8 mm diameter cork borer from actively growing cultures of assay fungi on a chemically defined agar medium. The plates are incubated at room temperature. Growth inhibition is determined when the mycelial growth on unamended control media has reached the edge of the petri plates. The time interval varies depending on the growth rate of the fungus. Each colony diameter is measured and compared with the untreated control and the percent inhibition is calculated as follows: [formula]
(§11) Each test includes a solvent blank consisting of the formulation without a test compound in addition to the untreated control.

Plasmopara viticola = assay: in vivo evaluation as fungicidal agents, grape downy mildew; conditions: for disease control rating GDM: grape downy mildew
Description: as §1, §2, §3

Pythium ultimam = assay: in vitro inhibition of mycelial growth, PYTHUL; assay type: cell-based; conditions: for activity against Pythium: in vitro
Description: as §4, §5, §6
PYTHUL Pythium ultimam Trow
as §8, §9, §10, §11

Alternaria solani = assay: in vivo evaluation as fungicidal agents, tomato early blight
Description: as §1, §2, §3

[2] = test system: Erysiphe graminis f.sp. tritici; assay: in vivo evaluation as fungicidal agents, wheat powdery mildew
Description: as §1, §2
WPM Wheat powdery mildew
as §3

Leptosphaeria nodurum = assay: in vivo evaluation as fungicidal agents, wheat septoria nodorum
Venturia inaequalis = assay: in vivo evaluation as fungicidal agents, apple scab
Description: as §1, §2
AS Apple scab Venturia inaequalis
as §3

Botrytis cinerea = assay: in vivo evaluation as fungicidal agents, pepper botrytis
Description: as §1, §2
PB Pepper botrytis Botrytis cinerea
as §3

[3] = test system: Rhizoctonia solani Kuehn AG1 1A; assay: in vitro inhibition of mycelial growth, RHIZSO; assay type: cell-based
Description: as §4, §5, §6
(§12) RHIZSO Rhizoctonia solani Kuehn AG1 1A
as §8, §9, §10, §11

other fungi = assay: in vitro inhibition of mycelial growth, other fungi; assay type: cell-based
Description: as §4, §5, §6, §7, §12
The test compound (2.5-10 mg) is dissolved in 0.5 ml acetone, diluted with 4.5 ml sterile deionized water, and mixed with 95 ml of an autoclaved and partially cooled, chemically defined agar medium in a 250 ml flask. […]
The mixture of test compound and agar medium as described above is poured into several 100 mm×15 mm sterile plastic plates and allowed to solidify. […] Growth inhibition is determined when the mycelial growth on unamended control media has reached the edge of the petri plates. […] Each colony diameter is measured and compared with the untreated control and the percent inhibition is calculated as follows: [formula]

[4] = test system: Fusarium oxysporum Schlechtend: Fr.f.sp. cucumerinim; assay: in vitro inhibition of mycelial growth, FUSOXC; assay type: cell-based
Description: as §4, §5, §6, §8, §9, §10, §11

SMILES: O=C1[C@@H]2O[C@@H]2C2(Oc3cccc4cccc(c34)O2)[C@]23O[C@]12[C@H](O)C=CC3=O [07F275sigma]
- disease control rating SBC (Cercospora beticola; 12.5 ppm): 0 (0)
- disease control rating SBC (Cercospora beticola; 50.0 ppm): 0 (0)
- disease control rating SBC (Cercospora beticola; 200.0 ppm): 0 (0)
- disease control, RB (Pyricularia oryzae): Little to no control
- reduction of disease severity, RB (Pyricularia oryzae): about 85%
- mycelial inhibition PSDCHE ([1]; 1.0 ppm): 1
- mycelial inhibition PSDCHE ([1]; 10.0 ppm): 1
- mycelial inhibition PSDCHE ([1]; 25.0 ppm): 1
- disease control rating GDM (Plasmopara viticola; 12.5 ppm): 0 (0)
- disease control rating GDM (Plasmopara viticola; 50.0 ppm): 4 (45-59)
- disease control rating GDM (Plasmopara viticola; 200.0 ppm): 6 (75-89)
- reduction of disease severity, GDM (Plasmopara viticola; greenhouse test, 200 ppm): about 85%
- disease control, GDM (Plasmopara viticola; greenhouse test, dosages lower than 200 ppm): Little to no control
- mycelial inhibition PYTHUL (Pythium ultimam; 1.0 ppm): 3
- mycelial inhibition PYTHUL (Pythium ultimam; 10.0 ppm): 7
- activity against Pythium (Pythium ultimam; 10 ppm): active
- mycelial inhibition PYTHUL (Pythium ultimam; 25.0 ppm): 7
- activity against Pythium (Pythium ultimam; dosages lower than 10 ppm): not at lower dosages
- disease control rating TEB (Alternaria solani; 12.5 ppm): 0 (0)
- disease control rating TEB (Alternaria solani; 50.0 ppm): 0 (0)
- disease control rating TEB (Alternaria solani; 200.0 ppm): 0 (0)
- disease control rating WPM ([2]; 12.5 ppm): 0 (0)
- disease control rating WPM ([2]; 50.0 ppm): 0 (0)
- disease control rating WPM ([2]; 200.0 ppm): 0 (0)
- disease control rating WSN (Leptosphaeria nodurum; 12.5 ppm): 0 (0)
- disease control rating WSN (Leptosphaeria nodurum; 50.0 ppm): 0 (0)
- disease control rating WSN (Leptosphaeria nodurum; 200.0 ppm): 0 (0)
- disease control rating AS (Venturia inaequalis; 12.5 ppm): 0 (0)
- disease control rating AS (Venturia inaequalis; 50.0 ppm): 0 (0)
- disease control rating AS (Venturia inaequalis; 200.0 ppm): 0 (0)
- disease control rating PB (Botrytis cinerea; 12.5 ppm): 0 (0)
- disease control rating PB (Botrytis cinerea; 50.0 ppm): 0 (0)
- disease control rating PB (Botrytis cinerea; 200.0 ppm): 0 (0)
- mycelial inhibition RHIZSO ([3]; 1.0 ppm): 1
- mycelial inhibition RHIZSO ([3]; 10.0 ppm): 1
- mycelial inhibition RHIZSO ([3]; 25.0 ppm): 1
- activity against other fungi in vitro (other fungi): Little or no activity
- mycelial inhibition FUSOXC ([4]; 1.0 ppm): 0
- mycelial inhibition FUSOXC ([4]; 10.0 ppm): 0
- mycelial inhibition FUSOXC ([4]; 25.0 ppm): 0
